Data taken from the supplement of paper PMC10307832.

Columns and labels:
Assay in all cases: relative viability (nuclei count vs DMSO), 5 days (fraction); higher = more cells survive
[1] = compound: CC1(C)CNc2cc(NC(=O)c3cccnc3NCc3ccncc3)ccc21 [Motesanib] + C[C@@H](Oc1cc(-c2cnn(C3CCNCC3)c2)cnc1N)c1c(Cl)ccc(F)c1Cl [Crizotinib] (partner 1 µM)
In short: (§1)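 The day after seeding in 1536-well plates, lung cancer cell lines were treated by pin tool with a single drug, or with a fixed anchor-drug dose together with five library-drug doses (not always all listed) in √10 steps. After 5 days, a combined fix-and-stain solution (final 0.05% Triton X-100, 1% formaldehyde, 1 ug/ml Hoechst) was added. Nuclei counted on 4× images gave relative viability as treated counts over vehicle counts, reported as the median of duplicate plates.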

[2] = compound: CC1(C)CNc2cc(NC(=O)c3cccnc3NCc3ccncc3)ccc21 [Motesanib] + Nc1ncn([C@H]2C[C@H](O)[C@@H](CO)O2)c(=O)n1 [Decitabine] (partner 2 µM)
In short: as §1

[3] = compound: C[C@@]1(C(=O)Nc2ccc(F)nc2)CCCN1c1nc(Nc2cc(C3CC3)n[nH]2)c2cccn2n1 + Cc1cc(Nc2cc(N3CCN(C)CC3)nc(Sc3ccc(NC(=O)C4CC4)cc3)n2)n[nH]1 [Tozasertib] (partner 0.1 µM)
In short: as §1

[4] = compound: C[C@@]1(C(=O)Nc2ccc(F)nc2)CCCN1c1nc(Nc2cc(C3CC3)n[nH]2)c2cccn2n1 + O=C(CCCCCCC(=O)Nc1ccccc1)NO [Vorinostat] (partner 1 µM)
In short: as §1

Cell Line	relative viability ([1]; first compound 0.01 µM)	relative viability ([1]; first compound 0.03162 µM)	relative viability ([1]; first compound 0.1 µM)	relative viability ([1]; first compound 0.3162 µM)	relative viability ([1]; first compound 1 µM)	relative viability ([2]; first compound 0.01 µM)	relative viability ([2]; first compound 0.03162 µM)	relative viability ([2]; first compound 0.1 µM)	relative viability ([2]; first compound 0.3162 µM)	relative viability ([2]; first compound 1 µM)	relative viability ([3]; first compound 0.04 µM)	relative viability ([3]; first compound 0.1265 µM)	relative viability ([3]; first compound 0.4 µM)	relative viability ([3]; first compound 1.265 µM)	relative viability ([4]; first compound 0.04 µM)	relative viability ([4]; first compound 0.1265 µM)	relative viability ([4]; first compound 0.4 µM)	relative viability ([4]; first compound 1.265 µM)
HCC-44	0.883	0.8	0.801	0.765	0.901	0.972	0.952	0.932	1.07	0.932	0.858	0.616	0.574	0.362	1.08	1.02	0.887	1.08
HCC-827	0.99	0.985	0.998	0.955	0.93	0.332	0.421	0.406	0.344	0.309	0.443	0.491	0.373	0.42	0.891	0.933	0.731	0.823
NCI-H1623											0.391	0.397	0.349	0.371				
NCI-H2347	0.783	0.691	0.715	0.745	0.631	0.667	0.578	0.701	0.642	0.674	0.606	0.581	0.512	0.502	0.581	0.487	0.415	0.543
PC-14	0.944	0.965	0.898	0.883	0.969	0.243	0.174	0.275	0.257	0.231	0.572	0.587	0.515	0.464	0.792	0.102	0.45	0.204
NCI-H1651	0.836	0.835	0.786	0.912	0.838	0.591	0.751	0.661	0.585	0.731	0.639	0.633	0.449	0.537	0.547	0.499	0.517	0.448
HARA	1.1	0.993	1.06	1.1	1.04	0.492	0.878	0.905	1.06	1.05	0.367	0.103	0.0758	0.79	0.364	0.233	0.31	0.433
NCI-H1650	0.91		0.975	0.93	1.02	0.53	0.352	0.445	0.546	0.564	0.345	0.29	0.258	0.255	0.568	0.445	0.494	0.311
NCI-H1395						0.765	0.698	0.795	0.739	0.791	0.783	0.741	0.74	0.61	0.803	0.415	0.629	0.528
LU99A	0.518	0.477	0.493	0.549	0.574	0.752	0.916	0.876	0.847	1.01	0.237	0.222	0.234	0.182	0.368	0.245	0.229	0.193
NCI-H1355	1.12	1.14	0.994	1.07	1.05	0.4	0.413	0.395	0.415	0.495	0.551	0.438	0.323	0.526	0.578	0.499	0.403	0.505
HCC-78	0.378	0.352	0.37	0.326	0.384	0.657	0.654	0.808		0.817	0.37	0.27	0.308	0.33	0.33	0.491	0.245	0.327
NCI-H1563	0.867	0.855	0.906	0.804	0.914													
HCC-15	0.778	0.782	0.799	0.835	0.838	0.592	0.621	0.648	0.81	0.69	0.403	0.337	0.119	0.169	0.689	0.51	0.555	0.774
EKVX	0.988	0.889	0.916	1.09	0.898	0.385	0.404	0.427	0.401	0.32	0.363	0.349	0.259	0.28	0.616	0.648	0.509	0.684
NCI-H2087	0.686	0.983	0.951	0.878	0.93			0.343	0.259	0.367	0.231	0.28	0.159	0.209	0.635	0.774	0.473	0.357
LK-2	0.232	0.234	0.231	0.249	0.217	0.251	0.398	0.28	0.285	0.374	0.178	0.169	0.187	0.175	0.294	0.182	0.151	0.202
NCI-H1437	0.888	0.996	0.963	0.95	1.05	0.596	0.544	0.58	0.548	0.629	0.382	0.309	0.221	0.238	0.898	0.744	0.527	0.433
COR-L23	0.512	0.639	0.703	0.643	0.547	0.477	0.456	0.491	0.468	0.519	0.195	0.23	0.131	0.107	0.345	0.323	0.115	0.109
ABC-1	0.996	1.03	1.26	1.14	1.32	0.825	1.03	1.02	0.931	1.26	0.2	0.128	0.184	0.165	1.23	0.819	0.708	0.409
NCI-H522						0.615	0.675	0.639	0.725	0.691	0.571	0.459	0.537	0.562	0.864	0.809	0.69	0.875
NCI-H838	0.908	0.856	0.903	0.899	0.878	0.484	0.49	0.541	0.572	0.582	0.249	0.221	0.166	0.259	0.7	0.627	0.535	0.266

Cell Line	relative viability ([1]; first compound 0.01 µM)	relative viability ([1]; first compound 0.03162 µM)	relative viability ([1]; first compound 0.1 µM)	relative viability ([1]; first compound 0.3162 µM)	relative viability ([1]; first compound 1 µM)	relative viability ([2]; first compound 0.01 µM)	relative viability ([2]; first compound 0.03162 µM)	relative viability ([2]; first compound 0.1 µM)	relative viability ([2]; first compound 0.3162 µM)	relative viability ([2]; first compound 1 µM)	relative viability ([3]; first compound 0.04 µM)	relative viability ([3]; first compound 0.1265 µM)	relative viability ([3]; first compound 0.4 µM)	relative viability ([3]; first compound 1.265 µM)	relative viability ([4]; first compound 0.04 µM)	relative viability ([4]; first compound 0.1265 µM)	relative viability ([4]; first compound 0.4 µM)	relative viability ([4]; first compound 1.265 µM)
SW 900						0.58	0.475	0.632	0.677	0.749	0.525	0.551	0.464	0.29	0.557	0.426	0.432	0.468
A549	0.741	0.663	0.746	0.754	0.777	0.261	0.216	0.327	0.278	0.338								
A-427	0.933	0.892	0.983	0.888	1.04	0.563	0.554	0.544	0.568	0.556	0.234	0.192	0.173	0.198	0.93	0.857	0.864	0.49
NCI-H1792	0.931	0.92	1.01	1.05	0.968	0.48	0.642	0.594	0.657	0.878								
LCLC-97TM1	0.362	0.429	0.373	0.469	0.486	0.251	0.26	0.285	0.261	0.295	0.122	0.103	0.0881	0.126	0.361	0.28	0.106	0.0755
NCI-H1703	0.826	0.545	0.303	0.155	0.172													
LCLC-103H		1.13	0.986	1.08	1.15	0.774	0.729	0.833	0.815	0.759	0.474	0.472	0.394	0.473	0.763	0.62	0.593	0.563
PC-3 [JPC-3]	0.997	1.03	1.02	1.01	1.01	0.803	0.836	0.858	0.897	1.01	0.915	0.882	0.843	0.887	0.717	0.718	0.755	0.525
BEN	0.792	0.85	0.803	0.928	0.978	0.599	0.788	0.779	0.693	0.867	0.551	0.529	0.517	0.501	0.537	0.492	0.467	0.439
NCI-H1666	1.02	1.06	0.949	0.958	1.03	0.67	0.748	0.885	0.762	0.813	0.623	0.558	0.465	0.415	0.965	0.729	0.77	0.82
LC-2-ad	0.442	0.46		0.441	0.484	0.776	0.758	0.776	0.772	0.753	0.403	0.393	0.288	0.296	0.66	0.554	0.526	0.186
SK-LU-1	0.961	0.935	0.826	0.897	0.988	0.676	0.649	0.823	0.831	0.824	0.282	0.318	0.233	0.259	0.804	0.761	0.55	0.367
ChaGo-K-1		1.16	1.1	1.18	1.15	0.506	0.556	0.544	0.661	0.607	0.209	0.197	0.201	0.207	0.713	0.636	0.626	0.671
Calu-6	0.794	0.744	0.78	0.758	0.783													
NCI-H1648						0.498			0.531	0.42	0.449			0.336	0.363	0.332	0.221	0.443
EBC-1	0.178	0.19	0.205	0.193	0.181													
NCI-H1299	0.938	0.978	0.951	0.949	0.936													
NCI-H2228	0.386	0.424	0.619	0.431	0.571						0.258	0.248	0.235	0.178	0.474	0.444	0.513	0.298
NCI-H2342						0.765	0.608	0.759	0.765	0.9	0.534	0.453	0.346	0.499	0.803	0.708	0.696	0.582
IA-LM	0.829	0.745	1.21	0.729	0.803										0.914	0.999	0.836	0.928
NCI-H1793						0.561	0.539	0.663	0.755	0.589	0.631	0.283		0.789	0.79	0.613	0.507	0.202
CAL-12T	0.627	0.56	0.664	0.758	0.559						0.249	0.27	0.275	0.189	0.574	0.567	0.461	0.33
